Assay results taken from patent US20090036485A1, “Quinoline derivatives” (priority 2004, published 2009).

Columns and labels:
[1] = molecular target: T1, PDGFRβ tyrosine kinase (Homo sapiens, UniProt P09619); experiment: In vitro enzyme assay (ELISA), PDGFRβ tyrosine kinase; type: biochemical
T1 construct: PDGFRα, PDGFRβ and KDR receptor cytoplasmic domains, obtained by expression of recombinant protein in insect cells; purchased Upstate Biotechnology Inc. 14-463; host or cells: Sf9 insect cells
T1 sequence (P09619 554-1106 limits assumed): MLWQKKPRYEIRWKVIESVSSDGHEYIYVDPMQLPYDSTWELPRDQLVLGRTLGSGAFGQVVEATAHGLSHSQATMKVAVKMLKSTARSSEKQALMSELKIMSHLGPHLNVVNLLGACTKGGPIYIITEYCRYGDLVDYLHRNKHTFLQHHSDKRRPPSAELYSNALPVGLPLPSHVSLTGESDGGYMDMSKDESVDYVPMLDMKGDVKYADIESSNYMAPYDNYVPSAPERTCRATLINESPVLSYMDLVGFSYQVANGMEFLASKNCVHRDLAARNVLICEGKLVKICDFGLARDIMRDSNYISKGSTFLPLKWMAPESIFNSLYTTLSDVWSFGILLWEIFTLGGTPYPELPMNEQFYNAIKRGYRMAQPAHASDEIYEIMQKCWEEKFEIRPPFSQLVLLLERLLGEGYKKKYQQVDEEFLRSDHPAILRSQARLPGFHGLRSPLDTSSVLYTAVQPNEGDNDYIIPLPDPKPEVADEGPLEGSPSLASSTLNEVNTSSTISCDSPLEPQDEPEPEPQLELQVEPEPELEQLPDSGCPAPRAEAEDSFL
Experimental: (§1) The excess of substrate solution was discarded and the wells were washed in turn with PBS containing 0.05% v/v Tween 20 (PBST; 300 μl/well) and twice with Hepes pH7.4 buffer (50 mM, 300 μl/well) before being blotted dry.
Aliquots (25 μl) of each dilution of test compound were transferred to wells in the washed assay plates. “Maximum” control wells contained diluted DMSO instead of compound. Aliquots (25 μl) of an aqueous manganese chloride solution (40 mM) containing adenosine-5′-triphosphate (ATP) was added to all test wells except the “blank” control wells which contained magnesium chloride without ATP.
Each kinase enzyme was diluted immediately prior to use with an enzyme diluent comprising 100 mM Hepes pH7.4 buffer, 0.1 mM sodium orthovanadate, 0.1% Triton X-100 and 0.2 mM dithiothreitol. Aliquots (50 μl) of freshly diluted enzyme were added to each well and the plates were agitated at ambient temperature for 20 minutes. […] The plates were agitated at ambient temperature for about 20 minutes until the optical density value of the “maximum” control wells, as measured at 405 nm using a plate reading spectrophotometer, was approximately 1.0.

[2] = molecular target: T2, phospho-Tyr751 PDGFRβ (Homo sapiens, UniProt P09619); experiment: In vitro phospho-Tyr751 PDGFRβ ELISA assay in MG63 osteosarcoma cells; type: cell-based; details: Test (b); MG63 cells stimulated with PDGFBB; read-out: IC50 versus phospho-Tyr751 PDGFRβ
T2 construct: phosphorylation of PDGFR expressed on MG63 osteosarcoma cells; endogenous in cells; host or cells: MG63 osteosarcoma cells
T2 sequence (P09619 33-1106): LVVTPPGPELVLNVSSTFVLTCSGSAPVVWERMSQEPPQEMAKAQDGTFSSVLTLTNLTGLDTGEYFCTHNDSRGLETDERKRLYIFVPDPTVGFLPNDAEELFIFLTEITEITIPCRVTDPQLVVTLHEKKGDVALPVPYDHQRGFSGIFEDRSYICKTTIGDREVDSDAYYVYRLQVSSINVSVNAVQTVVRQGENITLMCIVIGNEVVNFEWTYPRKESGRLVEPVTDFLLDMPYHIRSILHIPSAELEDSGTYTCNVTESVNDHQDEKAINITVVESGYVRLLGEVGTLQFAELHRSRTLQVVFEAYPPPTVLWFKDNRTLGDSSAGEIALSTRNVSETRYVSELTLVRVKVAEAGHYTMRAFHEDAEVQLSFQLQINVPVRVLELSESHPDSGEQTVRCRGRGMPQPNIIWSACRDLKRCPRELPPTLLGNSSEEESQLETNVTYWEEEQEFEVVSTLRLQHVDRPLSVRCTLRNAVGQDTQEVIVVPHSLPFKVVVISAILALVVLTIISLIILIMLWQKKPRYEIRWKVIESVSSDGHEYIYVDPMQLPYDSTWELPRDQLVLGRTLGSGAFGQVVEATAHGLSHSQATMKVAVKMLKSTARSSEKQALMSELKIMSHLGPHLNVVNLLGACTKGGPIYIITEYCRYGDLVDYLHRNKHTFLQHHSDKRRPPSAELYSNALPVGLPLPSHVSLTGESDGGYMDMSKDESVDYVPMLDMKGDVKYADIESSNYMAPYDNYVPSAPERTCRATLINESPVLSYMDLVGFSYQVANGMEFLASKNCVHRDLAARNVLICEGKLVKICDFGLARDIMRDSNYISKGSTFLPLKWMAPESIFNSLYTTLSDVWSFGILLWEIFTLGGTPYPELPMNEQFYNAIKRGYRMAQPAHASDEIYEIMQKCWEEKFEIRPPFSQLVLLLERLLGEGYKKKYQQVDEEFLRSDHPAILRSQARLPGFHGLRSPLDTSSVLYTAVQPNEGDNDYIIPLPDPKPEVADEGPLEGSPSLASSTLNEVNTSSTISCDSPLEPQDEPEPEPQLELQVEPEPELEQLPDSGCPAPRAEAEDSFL
Experimental: This assay uses a conventional ELISA method to determine the ability of test compounds to inhibit phosphorylation of tyrosine in PDGFRβ.
The cells were incubated overnight at 37° C. with 7.5% CO2 to allow the cells to adhere to the wells.
The cells were incubated for 90 minutes at 37° C. with 7.5% CO2.
The resultant cells were stimulated with PDGFBB using the following procedure. […] The cells were incubated at 37° C. with 7.5% CO2 for 5 minutes. […] The resultant tissue culture plates were shaken for 5 minutes at ambient temperature to ensure full lysis and then frozen at −20° C. until required.
The wells were washed 5 times (1 minute soak each time) with 300 μl per well of PBST. The wells were treated with 50 μl of 3% BSA in PBST at ambient temperature for 1 hour and subsequently washed twice with 300 μl per well of PBST.
The tissue culture plates with frozen cell lysate were allowed to warm to 0° C. […] Aliquots (50 μl) of chemiluminescent substrate solution were added to each of the wells, the plates were agitated for 2 minutes and luminescence was read on a SpectraFluor Plus plate reader (Tecan UK Ltd., Reading, Berkshire, UK). Analysis for each of the compounds was completed by determining a ratio of the ‘phospho antibody’ plate reading to the ‘total antibody’ plate reading for each test sample and these ratios were plotted to determine the IC50 value of each test compound.

[3] = molecular target: T3, KDR tyrosine kinase (Homo sapiens, UniProt P35968); experiment: In vitro enzyme assay (ELISA), KDR tyrosine kinase; type: biochemical; details: Test (a); ATP 8 μM; read-out: IC50 versus KDR tyrosine kinase
T3 construct: encoding most of the cytoplasmic domain, commencing with methionine 806 and including the termination codon; made in house; host or cells: Sf9 insect cells (baculovirus)
T3 sequence (P35968 786-1356 limits assumed): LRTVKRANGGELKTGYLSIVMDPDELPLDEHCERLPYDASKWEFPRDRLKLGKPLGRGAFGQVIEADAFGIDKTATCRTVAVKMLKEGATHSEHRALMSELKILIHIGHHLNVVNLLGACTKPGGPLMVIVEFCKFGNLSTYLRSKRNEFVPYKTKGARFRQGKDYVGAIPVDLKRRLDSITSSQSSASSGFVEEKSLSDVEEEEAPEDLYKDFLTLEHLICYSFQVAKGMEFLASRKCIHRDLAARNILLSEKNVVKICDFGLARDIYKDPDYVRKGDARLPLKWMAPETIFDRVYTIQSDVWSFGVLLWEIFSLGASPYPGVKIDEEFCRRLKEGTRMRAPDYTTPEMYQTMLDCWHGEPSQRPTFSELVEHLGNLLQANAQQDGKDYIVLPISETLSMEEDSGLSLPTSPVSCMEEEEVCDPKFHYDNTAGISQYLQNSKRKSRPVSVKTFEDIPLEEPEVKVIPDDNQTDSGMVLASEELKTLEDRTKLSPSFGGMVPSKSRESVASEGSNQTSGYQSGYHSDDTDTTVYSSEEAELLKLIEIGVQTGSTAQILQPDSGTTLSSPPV
Experimental: For expression, Sf9 cells were infected with plaque-pure KDR recombinant virus and harvested 48 hours later. […] The suspension was centrifuged for 10 minutes at 13,000 rpm at 4° C. The supernatant (stock enzyme solution) was removed and stored in aliquots at −70° C.
as §1
Aliquots (25 μl) of each dilution of test compound were transferred to wells in the washed assay plates. “Maximum” control wells contained diluted DMSO instead of compound. […]
Each kinase enzyme was diluted immediately prior to use with an enzyme diluent comprising 100 mM Hepes pH7.4 buffer, 0.1 mM sodium orthovanadate, 0.1% Triton X-100 and 0.2 mM dithiothreitol. […] The plates were agitated at ambient temperature for about 20 minutes until the optical density value of the “maximum” control wells, as measured at 405 nm using a plate reading spectrophotometer, was approximately 1.0.

[4] = molecular target: T4, PDGFRα tyrosine kinase (Homo sapiens, UniProt P16234); experiment: In vitro enzyme assay (ELISA), PDGFRα tyrosine kinase; type: biochemical; details: Test (a); ATP 14 μM; read-out: IC50 versus PDGFRα tyrosine kinase
T4 construct: PDGFRα, PDGFRβ and KDR receptor cytoplasmic domains, obtained by expression of recombinant protein in insect cells; purchased Upstate Biotechnology Inc. 14-467; host or cells: Sf9 insect cells
T4 sequence (P16234 550-1089 limits assumed): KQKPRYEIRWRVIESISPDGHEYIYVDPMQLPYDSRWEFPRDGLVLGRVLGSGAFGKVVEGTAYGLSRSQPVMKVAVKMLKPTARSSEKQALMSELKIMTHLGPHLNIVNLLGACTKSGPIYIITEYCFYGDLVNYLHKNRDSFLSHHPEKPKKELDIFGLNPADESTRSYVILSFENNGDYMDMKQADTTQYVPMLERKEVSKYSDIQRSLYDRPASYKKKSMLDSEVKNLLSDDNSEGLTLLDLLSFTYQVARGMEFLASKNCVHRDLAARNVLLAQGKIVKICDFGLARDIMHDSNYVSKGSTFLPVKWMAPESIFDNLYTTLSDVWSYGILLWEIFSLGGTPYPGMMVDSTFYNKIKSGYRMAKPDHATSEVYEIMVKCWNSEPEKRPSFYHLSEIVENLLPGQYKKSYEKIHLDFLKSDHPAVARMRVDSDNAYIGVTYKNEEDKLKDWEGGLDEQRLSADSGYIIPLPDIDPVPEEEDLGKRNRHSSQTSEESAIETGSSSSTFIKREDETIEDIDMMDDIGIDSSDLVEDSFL
Experimental: The ability of test compounds to inhibit the phosphorylation of a tyrosine containing polypeptide substrate by the tyrosine kinase enzymes PDGFRα, PDGFRβ and KDR was assessed using conventional ELISA assays.
DNA encoding the PDGFRα, PDGFRβ or KDR receptor cytoplasmic domains may be obtained by total gene synthesis (International Biotechnology Lab., 1987, 5(3), 19-25) or by cloning. The DNA fragments may be expressed in a suitable expression system to obtain polypeptide with tyrosine kinase activity. For example, PDGFRα, PDGFRβ and KDR receptor cytoplasmic domains, obtained by expression of recombinant protein in insect cells, can be shown to display intrinsic tyrosine kinase activity. In the case of the VEGF receptor KDR (Genbank Accession No. L04947), a DNA fragment encoding most of the cytoplasmic domain, commencing with methionine 806 and including the termination codon may be cloned into a baculovirus transplacement vector [for example pAcYM1 (see The Baculovirus Expression System: A Laboratory Guide, L. A. King and R. D. Possee, Chapman and Hall, 1992) or pAc360 or pBlueBacHis (available from Invitrogen Corporation)]. This recombinant construct may be co-transfected into insect cells [for example Spodoptera frugiperda 21(Sf21) or Spodoptera frugiperda 9(Sf9)] with viral DNA (for example Pharmingen BaculoGold) to prepare recombinant baculovirus. […]

COc1cc2nccc(Oc3cnn(CC(=O)Nc4cccc(F)c4)c3)c2cc1C#N [Example 1, N-(3-fluorophenyl)-2-[4-(6-cyano-7-methoxyquinolin-4-yloxy)pyrazol-1-yl]acetamide]
IC50 [1]: ~100 nM | IC50 [2]: ~2 nM | IC50 [3]: ~6000 nM | IC50 [4]: ~500 nM
